We go through 28 compounds from patent US12209087B2, “AKT1 modulators” (Alterome Therapeutics, Inc., priority 2022, dated 2025).

Some results are limits rather than exact numbers.

T1 sequence (P31749 whole entry E17K): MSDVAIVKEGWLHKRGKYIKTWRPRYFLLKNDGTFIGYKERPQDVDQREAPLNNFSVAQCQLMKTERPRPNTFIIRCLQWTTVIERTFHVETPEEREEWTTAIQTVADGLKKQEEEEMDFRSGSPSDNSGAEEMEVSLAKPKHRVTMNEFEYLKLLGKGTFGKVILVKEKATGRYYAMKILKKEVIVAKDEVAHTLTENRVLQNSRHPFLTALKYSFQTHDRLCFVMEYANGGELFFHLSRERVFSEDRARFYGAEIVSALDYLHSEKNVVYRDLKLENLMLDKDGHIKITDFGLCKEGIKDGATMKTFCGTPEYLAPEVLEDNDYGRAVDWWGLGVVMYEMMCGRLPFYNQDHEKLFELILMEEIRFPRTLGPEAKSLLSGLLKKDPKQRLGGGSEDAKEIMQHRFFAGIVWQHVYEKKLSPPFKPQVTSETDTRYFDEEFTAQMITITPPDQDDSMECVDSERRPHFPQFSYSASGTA

The first assay has as its target T1, full length AKT E17K (Homo sapiens, UniProt P31749, E17K).
T1 construct: host or cells: HEK-293 (ATCC CRL-1573)
Description: NanoBRET Target Engagement (TE) Assay. It is filed as cell-based. Particulars: competitive displacement of tracer in cells, read-out: AKT1 E17K IC50. The method, boiled down:
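Compound and tracer incubated 2 h before luminescence at donor 450 nm and acceptor 600 nm, with extracellular signal inhibited. EC50 by sigmoidal variable-slope regression.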
For orientation: BRET reads energy transfer from a luciferase to a nearby fluorophore.
One may read the IC50 as the concentration that inhibits the measured activity by half. For `N#CCn1ncc(-c2ccc3nc(-c4cccnc4N)n(-c4ccc(CN5CCC(Nc6ccnc(C#N)n6)CC5)cc4)c3n2)n1` [Example 626, 4-((1-(4-(2-(2-Aminopyridin-3-yl)-5-(2-(cyanomethyl)-2H-1,2,3-triazol-4-yl)-3H-imidazo[4,5-b]pyridin-3-yl)benzyl)piperidin-4-yl)amino)pyrimidine-2-carbonitrile], the half-inhibitory concentration (IC50) is less than 15 nM. Same read-out and setting: with `N#Cc1nccc(NC2CCN(Cc3ccc(-n4c(-c5cccnc5N)nc5ccc([C@@H]6CCOC6)nc54)cc3)CC2)n1` (single isomer, unassigned) [Example 506] the figure was less than 15 nM. Same read-out and setting: then `CN(C(=O)c1ccnc(C#N)n1)C1CCN(Cc2ccc(-n3c(-c4cccnc4N)nc4ccc(-c5ccccc5)nc43)cc2)CC1` [Example 336, N-(1-(4-(2-(2-aminopyridin-3-yl)-5-phenyl-3H-imidazo[4,5-b]pyridin-3-yl)benzyl)piperidin-4-yl)-2-cyano-N-methylpyrimidine-4-carboxamide], with less than 15 nM; and `N#Cc1nccc(NC2CCN(Cc3ccc(-n4c(-c5cccnc5N)nc5ccc(-c6cccc(Cl)c6)nc54)cc3)CC2)n1` [Example 353, 4-((1-(4-(2-(2-Aminopyridin-3-yl)-5-(3-chlorophenyl)-3H-imidazo[4,5-b]pyridin-3-yl)benzyl)piperidin-4-yl)amino)pyrimidine-2-carbonitrile], with 60 to 600 nM; and `N#Cc1ccc2c(c1)nc(-c1cccnc1N)n2-c1ccc(CN2CCC(Nc3ccnc(C#N)n3)CC2)cc1` [Example 501, 2-(2-Aminopyridin-3-yl)-1-(4-((4-((2-cyanopyrimidin-4-yl)amino)piperidin-1-yl)methyl)phenyl)-1H-benzo[d]imidazole-5-carbonitrile], with 15 to 60 nM. As to `Cc1ncoc1-c1ccc2nc(-c3cccnc3N)n(-c3ccc(CN4CCC(Nc5ccnc(C#N)n5)CC4)cc3)c2n1` [Example 554, 4-((1-(4-(2-(2-Aminopyridin-3-yl)-5-(4-methyloxazol-5-yl)-3H-imidazo[4,5-b]pyridin-3-yl)benzyl)piperidin-4-yl)amino)pyrimidine-2-carbonitrile], the IC50 was less than 15 nM. Same read-out and setting: with `N#Cc1nccc(NC2CCN(Cc3ccc(-n4c(-c5cccnc5N)nc5ccc(OC(F)F)nc54)cc3)CC2)n1` [Example 535, 4-((1-(4-(2-(2-Aminopyridin-3-yl)-5-(difluoromethoxy)-3H-imidazo[4,5-b]pyridin-3-yl)benzyl)piperidin-4-yl)amino)pyrimidine-2-carbonitrile] the figure was less than 15 nM. Take `N#Cc1nccc(N2CC3CCC(C2)N3Cc2ccc(-n3c(-c4cccnc4N)nc4ccc(-c5ccc(F)cc5)nc43)cc2)n1` [Example 448, 4-(8-(4-(2-(2-Aminopyridin-3-yl)-5-(4-fluorophenyl)-3H-imidazo[4,5-b]pyridin-3-yl)benzyl)-3,8-diazabicyclo[3.2.1]octan-3-yl)pyrimidine-2-carbonitrile]: the half-maximal inhibitory concentration (IC50) was in the range of 15 to 60 nM. Take `N#Cc1nccc(NC2CCN(Cc3ccc(-n4c(-c5cccnc5N)nc5cc(Br)c(-c6ccc(F)cc6)nc54)cc3)CC2)n1` [Example 549, 4-((1-(4-(2-(2-Aminopyridin-3-yl)-6-bromo-5-(4-fluorophenyl)-3H-imidazo[4,5-b]pyridin-3-yl)benzyl)piperidin-4-yl)amino)pyrimidine-2-carbonitrile]: the IC50 is less than 15 nM.

As for `N#Cc1nccc(NC2CCN(Cc3ccc(-n4c(-c5cccnc5N)nc5ccc(-c6ccnc(F)c6)nc54)cc3)CC2)n1` [Example 561, 4-((1-(4-(2-(2-Aminopyridin-3-yl)-5-(2-fluoropyridin-4-yl)-3H-imidazo[4,5-b]pyridin-3-yl)benzyl)piperidin-4-yl)amino)pyrimidine-2-carbonitrile], the IC50 is less than 15 nM. On the same count and under the same terms, with `N#Cc1nccc(NC2CCN(Cc3ccc(-n4c(-c5cccnc5N)nc5ccc([C@H]6CCOC6)nc54)cc3)CC2)n1` (single isomer, unassigned) [Example 507] the figure was less than 15 nM; with `N#Cc1nccc(NC2CCN(Cc3ccc(-n4c(-c5cccnc5N)nc5ccc(N6CCCNC(=O)C6)nc54)cc3)CC2)n1` [Example 318, 4-((1-(4-(2-(2-Aminopyridin-3-yl)-5-(3-oxo-1,4-diazepan-1-yl)-3H-imidazo[4,5-b]pyridin-3-yl)benzyl)piperidin-4-yl)amino)pyrimidine-2-carbonitrile], 15 to 60 nM; with `COc1ncccc1-c1ccc2nc(-c3cccnc3N)n(-c3ccc(CN4CCC(Nc5ccnc(C#N)n5)CC4)cc3)c2n1` [Example 537, 4-((1-(4-(2-(2-Aminopyridin-3-yl)-5-(2-methoxypyridin-3-yl)-3H-imidazo[4,5-b]pyridin-3-yl)benzyl)piperidin-4-yl)amino)pyrimidine-2-carbonitrile], less than 15 nM. For the compound `N#Cc1nccc(NC2CCN(Cc3ccc(-n4c(-c5cccnc5N)nc5ccc(-c6ccc(F)cc6F)nc54)cc3)CC2)n1` [Example 475, 4-((1-(4-(2-(2-Aminopyridin-3-yl)-5-(2,4-difluorophenyl)-3H-imidazo[4,5-b]pyridin-3-yl)benzyl)piperidin-4-yl)amino)pyrimidine-2-carbonitrile], the 50% inhibitory concentration (IC50) is less than 15 nM. The same measure, in the same setting: with `Cc1cc2nc(-c3cccnc3N)n(-c3ccc(CN4CCC(Nc5ccnc(C#N)n5)CC4)cc3)c2nc1C#N` [Example 565, 2-(2-Aminopyridin-3-yl)-3-(4-((4-((2-cyanopyrimidin-4-yl)amino)piperidin-1-yl)methyl)phenyl)-6-methyl-3H-imidazo[4,5-b]pyridine-5-carbonitrile] the figure was less than 15 nM; with `[2H]C1(Nc2ccnc(C#N)n2)CCN(Cc2ccc(-n3c(-c4cccnc4N)nc4cc(C)c(C)nc43)cc2)CC1` [Example 452, 4-((1-(4-(2-(2-Aminopyridin-3-yl)-5,6-dimethyl-3H-imidazo[4,5-b]pyridin-3-yl)benzyl)piperidin-4-yl-4-d)amino)pyrimidine-2-carbonitrile], less than 15 nM.

Staying with this assay, now noted: competitive tracer displacement in living cells, read-out: AKT1 E17K IC50.
In the case of `N#Cc1nc2cc(F)cc(C(=O)NCc3ccc(-n4c(-c5cccnc5N)nc5cccnc54)cc3)c2s1` [Example 173, N-(4-(2-(2-aminopyridin-3-yl)-3H-imidazo[4,5-b]pyridin-3-yl)benzyl)-2-cyano-5-fluorobenzo[d]thiazole-7-carboxamide], the IC50 was less than 15 nM. `N#Cc1ccnc(NCc2ccc(-n3c(-c4cccnc4N)nc4cccnc43)cc2)c1` [Example 132, 2-((4-(2-(2-Aminopyridin-3-yl)-3H-imidazo[4,5-b]pyridin-3-yl)benzyl)amino)isonicotinonitrile]: the concentration for half-maximal inhibition (IC50) was 600 to 10000 nM. Same read-out and setting: then `N#Cc1cnnc(NC2CCN(Cc3ccc(-n4c(-c5cccnc5N)nc5cccnc54)cc3)CC2)c1` [Example 51, 6-((1-(4-(2-(2-Aminopyridin-3-yl)-3H-imidazo[4,5-b]pyridin-3-yl)benzyl)piperidin-4-yl)amino)pyridazine-4-carbonitrile], with 600 to 10000 nM; and `N#Cc1nc2c(C(=O)N3CCN(Cc4ccc(-n5c(-c6cccnc6N)nc6ccc(-c7ccccc7)nc65)cc4)CC3)cc(F)cc2s1` [Example 181, 4-(4-(4-(2-(2-Aminopyridin-3-yl)-5-phenyl-3H-imidazo[4,5-b]pyridin-3-yl)benzyl)piperazine-1-carbonyl)-6-fluorobenzo[d]thiazole-2-carbonitrile], with 15 to 60 nM. Same read-out and setting: then `N#Cc1ccc(C(=O)NC2CCN(Cc3ccc(-n4c(-c5cccnc5N)nc5ccc(-c6ccccc6)nc54)cc3)CC2)nc1` [Example 81, N-(1-(4-(2-(2-Aminopyridin-3-yl)-5-phenyl-3H-imidazo[4,5-b]pyridin-3-yl)benzyl)piperidin-4-yl)-5-cyanopicolinamide], with 60 to 600 nM; and `N#Cc1ncnc(NC2CN(Cc3ccc(-n4c(-c5cccnc5N)nc5ccc(-c6ccccc6)nc54)cc3)C2)n1` [Example 300, 4-((1-(4-(2-(2-Aminopyridin-3-yl)-5-phenyl-3H-imidazo[4,5-b]pyridin-3-yl)benzyl)azetidin-3-yl)amino)-1,3,5-triazine-2-carbonitrile], with 15 to 60 nM; and `N#Cc1ccc(C(=O)NC2CCN(Cc3ccc(-n4c(-c5cccnc5N)nc5cccnc54)cc3)CC2)cn1` [Example 24, N-(1-(4-(2-(2-Aminopyridin-3-yl)-3H-imidazo[4,5-b]pyridin-3-yl)benzyl)piperidin-4-yl)-6-cyanonicotinamide], with 600 to 10000 nM.

In the case of `N#Cc1cncc(NC2CCN(Cc3ccc(-n4c(-c5cccnc5N)nc5ccc(-c6ccccc6)nc54)cc3)CC2)c1` [Example 93, 5-((1-(4-(2-(2-Aminopyridin-3-yl)-5-phenyl-3H-imidazo[4,5-b]pyridin-3-yl)benzyl)piperidin-4-yl)amino)nicotinonitrile], the half-inhibitory concentration (IC50) fell in the range of 60 to 600 nM. Same read-out and setting: with `N#Cc1cncnc1C(=O)NC1CCN(Cc2ccc(-n3c(-c4cccnc4N)nc4ccc(-c5ccccc5)nc43)cc2)CC1` [Example 73, N-(1-(4-(2-(2-Aminopyridin-3-yl)-5-phenyl-3H-imidazo[4,5-b]pyridin-3-yl)benzyl)piperidin-4-yl)-5-cyanopyrimidine-4-carboxamide] the figure was 15 to 60 nM. The same measure, in the same setting: then `N#Cc1nccc(NC2CCN(Cc3ccc(-n4c(-c5cccnc5N)nc5ccc(C6=CCCCC6)nc54)cc3)CC2)n1` [Example 263, 4-((1-(4-(2-(2-Aminopyridin-3-yl)-5-(cyclohex-1-en-1-yl)-3H-imidazo[4,5-b]pyridin-3-yl)benzyl)piperidin-4-yl)amino)pyrimidine-2-carbonitrile], with 15 to 60 nM. Still for that read-out and setting: then `N#Cc1nccc(NC2CCN(Cc3ccc(-n4c(-c5cccnc5N)nc5ccc(-c6ccccc6)nc54)cc3)CC2)n1` [Example 88, 4-((1-(4-(2-(2-Aminopyridin-3-yl)-5-phenyl-3H-imidazo[4,5-b]pyridin-3-yl)benzyl)piperidin-4-yl)amino)pyrimidine-2-carbonitrile], with less than 15 nM; and `CC(=O)Nc1cccc(-c2ccc3nc(-c4cccnc4N)n(-c4ccc(CN5CCN(c6cnnc(C#N)c6)CC5)cc4)c3n2)c1` [Example 43, N-(3-(2-(2-Aminopyridin-3-yl)-3-(4-((4-(6-cyanopyridazin-4-yl)piperazin-1-yl)methyl)phenyl)-3H-imidazo[4,5-b]pyridin-5-yl)phenyl)acetamide], with 60 to 600 nM.
